According to ChEMBL document CHEMBL3588844, “Discovery of A-893, A New Cell-Active Benzoxazinone Inhibitor of Lysine Methyltransferase SMYD2” (ACS Med Chem Lett, 2015):
Each block holds one molecule with its values, some of them ahead of it. The source made the active and inactive calls. The calls are words filed in the database; no cut-off is given here.

Assays:
[1] = target: N-lysine methyltransferase SMYD2 (Homo sapiens, UniProt Q9NRG4)
[2] = target: Histone-lysine N-methyltransferase NSD3 (Homo sapiens) (UniProt Q9BZ95); assay: Inhibition of NSD3 (unknown origin) at 1 uM after 1 hr by filter-based assay
[3] = target: Histone-lysine N-methyltransferase, H3 lysine-36 specific (Homo sapiens) (UniProt Q96L73); assay: Inhibition of NSD1 (unknown origin) at 1 uM after 1 hr by filter-based assay
[4] = target: Histone-lysine N-methyltransferase, H3 lysine-79 specific (Homo sapiens) (UniProt Q8TEK3); assay: Inhibition of DOT1L (unknown origin) at 1 uM after 1 hr by filter-based assay
[5] = target: Protein arginine N-methyltransferase 6 (Homo sapiens) (UniProt Q96LA8); assay: Inhibition of PRMT6 (unknown origin) assessed as incorporation of tritium labeled methyl group from [3H]-SAM to substrate at 1 uM after 1 hr by scintillation proximity assay relative to control
[6] = target: Protein N-lysine methyltransferase METTL21A (Homo sapiens) (UniProt Q8WXB1); assay: Inhibition of METTL21A (unknown origin) assessed as incorporation of tritium labeled methyl group from [3H]-SAM to substrate at 1 uM after 1 hr by scintillation proximity assay relative to control
[7] = target: PRMT5/MEP50 complex (Homo sapiens) (UniProt O14744+Q9BQA1); assay: Inhibition of PRMT5-MEP50 complex (unknown origin) assessed as incorporation of tritium labeled methyl group from [3H]-SAM to substrate at 1 uM after 1 hr by scintillation proximity assay relative to control; format: protein-complex assay
[8] = target: Histone-lysine N-methyltransferase EHMT2 (Homo sapiens) (UniProt Q96KQ7); assay: Inhibition of G9a (unknown origin) assessed as incorporation of tritium labeled methyl group from [3H]-SAM to substrate at 1 uM after 1 hr by scintillation proximity assay relative to control
[9] = target: Protein arginine N-methyltransferase 3 (Homo sapiens) (UniProt O60678); assay: Inhibition of PRMT3 (unknown origin) assessed as incorporation of tritium labeled methyl group from [3H]-SAM to substrate at 10 to 50 uM after 1 hr by scintillation proximity assay relative to control
A549 [10] = assay: Effect on p53 protein level in human A549 cells at 10 uM after 18 hrs; format: functional, cell-based
[11] = target: DNMT3B-DNMT3L complex (Homo sapiens) (UniProt Q9UBC3+Q9UJW3); assay: Inhibition of DNMT3B/3L (unknown origin) at 1 uM after 1 hr by filter-based assay; format: protein-complex assay
[12] = target: Histone-lysine N-methyltransferase KMT5C (Homo sapiens) (UniProt Q86Y97); assay: Inhibition of SUV420H2 (unknown origin) at 1 uM after 1 hr by filter-based assay
[13] = target: Protein arginine N-methyltransferase 8 (Homo sapiens) (UniProt Q9NR22); assay: Inhibition of PRMT8 (unknown origin) assessed as incorporation of tritium labeled methyl group from [3H]-SAM to substrate at 1 uM after 1 hr by scintillation proximity assay relative to control
[14] = target: Protein arginine N-methyltransferase 7 (Homo sapiens) (UniProt Q9NVM4); assay: Inhibition of PRMT7 (unknown origin) assessed as incorporation of tritium labeled methyl group from [3H]-SAM to substrate at 10 to 50 uM after 1 hr by scintillation proximity assay relative to control
[15] = target: Histone-lysine N-methyltransferase ASH1L (Homo sapiens) (UniProt Q9NR48); assay: Inhibition of ASH1L (unknown origin) at 1 uM after 1 hr by filter-based assay
[16] = target: Histone-lysine N-methyltransferase SMYD3 (Homo sapiens) (UniProt Q9H7B4); assay: Inhibition of SMYD3 (unknown origin) assessed as incorporation of tritium labeled methyl group from [3H]-SAM to substrate at 1 uM after 1 hr by scintillation proximity assay relative to control
[17] = target: Histone-lysine N-methyltransferase PRDM9 (Homo sapiens) (UniProt Q9NQV7); assay: Inhibition of PRDM9 (unknown origin) assessed as incorporation of tritium labeled methyl group from [3H]-SAM to substrate at 1 uM after 1 hr by scintillation proximity assay relative to control
[18] = target: Histone-lysine N-methyltransferase 2A (Homo sapiens) (UniProt Q03164); assay: Inhibition of MLL1 trimeric complex (unknown origin) assessed as incorporation of tritium labeled methyl group from [3H]-SAM to substrate at 1 uM after 1 hr by scintillation proximity assay relative to control
[19] = target: Histone-lysine N-methyltransferase SETDB1 (Homo sapiens) (UniProt Q15047); assay: Inhibition of SETDB1 (unknown origin) assessed as incorporation of tritium labeled methyl group from [3H]-SAM to substrate at 1 uM after 1 hr by scintillation proximity assay relative to control
[20] = target: DNA (cytosine-5)-methyltransferase 1 (Homo sapiens) (UniProt P26358); assay: Inhibition of DNMT1 (unknown origin) assessed as incorporation of tritium labeled methyl group from [3H]-SAM to dsDNA substrate at 1 uM after 1 hr by scintillation proximity assay relative to control
[21] = target: Histone-lysine N-methyltransferase EZH1 (Homo sapiens) (UniProt Q92800); assay: Inhibition of EZH1 pentameric complex (unknown origin) assessed as incorporation of tritium labeled methyl group from [3H]-SAM to substrate at 1 uM after 1 hr by scintillation proximity assay relative to control
[22] = target: RNA 5'-monophosphate methyltransferase (Homo sapiens) (UniProt Q7Z5W3); assay: Inhibition of BCDIN3D (unknown origin) assessed as incorporation of tritium labeled methyl group from [3H]-SAM to substrate at 1 uM after 1 hr by scintillation proximity assay relative to control
[23] = target: Protein arginine N-methyltransferase 3 (Homo sapiens) (UniProt O60678); assay: Inhibition of PRMT3 (unknown origin) assessed as incorporation of tritium labeled methyl group from [3H]-SAM to substrate at 1 uM after 1 hr by scintillation proximity assay relative to control
[24] = target: Histone-lysine N-methyltransferase EHMT1 (Homo sapiens) (UniProt Q9H9B1); assay: Inhibition of EHMT1 (unknown origin) assessed as incorporation of tritium labeled methyl group from [3H]-SAM to substrate at 1 uM after 1 hr by scintillation proximity assay relative to control
[25] = target: Protein arginine N-methyltransferase 1 (Homo sapiens) (UniProt Q99873); assay: Inhibition of PRMT1 (unknown origin) assessed as incorporation of tritium labeled methyl group from [3H]-SAM to substrate at 1 uM after 1 hr by scintillation proximity assay relative to control
[26] = target: DNMT3A2/3L complex (Homo sapiens) (UniProt Q9Y6K1+Q9UJW3); assay: Inhibition of DNMT3A/3L (unknown origin) at 1 uM after 1 hr by filter-based assay; format: protein-complex assay
[27] = target: Histone-lysine N-methyltransferase EZH2 (Homo sapiens) (UniProt Q15910); assay: Inhibition of EZH2 trimeric complex (unknown origin) assessed as incorporation of tritium labeled methyl group from [3H]-SAM to substrate at 1 uM after 1 hr by scintillation proximity assay relative to control
[28] = target: Histone-lysine N-methyltransferase SUV39H2 (Homo sapiens) (UniProt Q9H5I1); assay: Inhibition of SUV39H2 (unknown origin) assessed as incorporation of tritium labeled methyl group from [3H]-SAM to substrate at 10 to 50 uM after 1 hr by scintillation proximity assay relative to control
[29] = target: Histone-lysine N-methyltransferase NSD2 (Homo sapiens) (UniProt O96028); assay: Inhibition of NSD2 (unknown origin) at 1 uM after 1 hr by filter-based assay
[30] = target: Histone-lysine N-methyltransferase SETD2 (Homo sapiens) (UniProt Q9BYW2); assay: Inhibition of SETD2 (unknown origin) assessed as incorporation of tritium labeled methyl group from [3H]-SAM to substrate at 1 uM after 1 hr by scintillation proximity assay relative to control
[31] = target: Histone-lysine N-methyltransferase SUV39H2 (Homo sapiens) (UniProt Q9H5I1); assay: Inhibition of SUV39H2 (unknown origin) assessed as incorporation of tritium labeled methyl group from [3H]-SAM to substrate at 1 uM after 1 hr by scintillation proximity assay relative to control
[32] = target: Histone-lysine N-methyltransferase KMT5B (Homo sapiens) (UniProt Q4FZB7); assay: Inhibition of SUV420H1 (unknown origin) assessed as incorporation of tritium labeled methyl group from [3H]-SAM to substrate at 1 uM after 1 hr by scintillation proximity assay relative to control
[33] = target: Histone-lysine N-methyltransferase SETD7 (Homo sapiens) (UniProt Q8WTS6); assay: Inhibition of SETD7 (unknown origin) assessed as incorporation of tritium labeled methyl group from [3H]-SAM to substrate at 1 uM after 1 hr by scintillation proximity assay relative to control
[34] = target: Protein N-lysine methyltransferase METTL21D (Homo sapiens) (UniProt Q9H867); assay: Inhibition of METTL21D (unknown origin) assessed as incorporation of tritium labeled methyl group from [3H]-SAM to substrate at 1 uM after 1 hr by scintillation proximity assay relative to control
[35] = target: Protein arginine N-methyltransferase 7 (Homo sapiens) (UniProt Q9NVM4); assay: Inhibition of PRMT7 (unknown origin) assessed as incorporation of tritium labeled methyl group from [3H]-SAM to substrate at 1 uM after 1 hr by scintillation proximity assay relative to control
[36] = target: Histone-lysine N-methyltransferase SMYD3 (Homo sapiens) (UniProt Q9H7B4); assay: Inhibition of SMYD3 (unknown origin) assessed as incorporation of tritium labeled methyl group from [3H]-SAM to substrate at 10 to 50 uM after 1 hr by scintillation proximity assay relative to control
[37] = target: N-lysine methyltransferase KMT5A (Homo sapiens) (UniProt Q9NQR1); assay: Inhibition of SETD8 (unknown origin) assessed as incorporation of tritium labeled methyl group from [3H]-SAM to substrate at 1 uM after 1 hr by scintillation proximity assay relative to control
A549 [38] = assay: Upregulation of p53 protein level in human A549 cells at 10 uM after 18 hrs relative to control; format: functional

Sequence of N-lysine methyltransferase SMYD2 (Q9NRG4 whole entry): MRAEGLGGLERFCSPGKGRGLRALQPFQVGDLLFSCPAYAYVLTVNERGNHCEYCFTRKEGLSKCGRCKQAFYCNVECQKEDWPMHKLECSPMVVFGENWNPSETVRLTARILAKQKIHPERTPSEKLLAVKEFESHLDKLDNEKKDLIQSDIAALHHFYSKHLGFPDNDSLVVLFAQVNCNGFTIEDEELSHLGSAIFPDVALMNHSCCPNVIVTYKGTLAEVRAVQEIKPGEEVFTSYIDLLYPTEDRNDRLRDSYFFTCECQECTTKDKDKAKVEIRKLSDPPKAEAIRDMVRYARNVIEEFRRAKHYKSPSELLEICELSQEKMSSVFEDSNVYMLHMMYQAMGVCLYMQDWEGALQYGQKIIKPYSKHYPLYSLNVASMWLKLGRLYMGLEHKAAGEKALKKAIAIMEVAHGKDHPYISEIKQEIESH
Sequence of Protein arginine N-methyltransferase 7 (Homo sapiens) (Q9NVM4 whole entry): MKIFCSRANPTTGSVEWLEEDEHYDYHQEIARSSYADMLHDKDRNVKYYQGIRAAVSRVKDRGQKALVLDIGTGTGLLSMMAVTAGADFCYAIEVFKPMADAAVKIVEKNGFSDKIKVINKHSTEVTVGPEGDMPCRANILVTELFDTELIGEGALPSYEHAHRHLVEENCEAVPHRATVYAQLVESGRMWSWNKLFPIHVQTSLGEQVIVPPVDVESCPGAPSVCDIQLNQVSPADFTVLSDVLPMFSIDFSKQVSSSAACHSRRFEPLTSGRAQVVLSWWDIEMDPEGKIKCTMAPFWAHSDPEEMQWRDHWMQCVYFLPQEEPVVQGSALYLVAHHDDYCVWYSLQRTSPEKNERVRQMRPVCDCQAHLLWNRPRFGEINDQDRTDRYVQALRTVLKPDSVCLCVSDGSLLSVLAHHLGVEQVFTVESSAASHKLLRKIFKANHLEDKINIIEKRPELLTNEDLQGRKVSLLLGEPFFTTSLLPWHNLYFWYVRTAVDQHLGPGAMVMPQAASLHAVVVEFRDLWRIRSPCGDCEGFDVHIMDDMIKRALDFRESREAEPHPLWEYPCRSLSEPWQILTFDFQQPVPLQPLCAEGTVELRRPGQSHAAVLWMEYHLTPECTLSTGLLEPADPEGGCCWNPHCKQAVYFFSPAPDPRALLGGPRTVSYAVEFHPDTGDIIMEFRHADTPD
Sequence of Protein arginine N-methyltransferase 3 (Homo sapiens) (O60678 2-531 limits assumed): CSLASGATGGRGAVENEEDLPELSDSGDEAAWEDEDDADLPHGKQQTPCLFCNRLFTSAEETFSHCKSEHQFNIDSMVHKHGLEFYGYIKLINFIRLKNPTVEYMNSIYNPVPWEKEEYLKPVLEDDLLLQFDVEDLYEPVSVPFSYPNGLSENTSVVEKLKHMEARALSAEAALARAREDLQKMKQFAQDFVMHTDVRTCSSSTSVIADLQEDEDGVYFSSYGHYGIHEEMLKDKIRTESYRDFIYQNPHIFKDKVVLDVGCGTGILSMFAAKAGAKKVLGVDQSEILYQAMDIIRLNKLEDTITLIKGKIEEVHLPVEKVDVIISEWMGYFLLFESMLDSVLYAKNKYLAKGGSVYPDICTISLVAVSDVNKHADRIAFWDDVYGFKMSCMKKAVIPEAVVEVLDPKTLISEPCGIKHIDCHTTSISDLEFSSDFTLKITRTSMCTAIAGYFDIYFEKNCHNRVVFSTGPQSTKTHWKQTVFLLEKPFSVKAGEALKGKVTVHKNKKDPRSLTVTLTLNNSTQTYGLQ
Sequence of Histone-lysine N-methyltransferase SUV39H2 (Homo sapiens) (Q9H5I1 whole entry): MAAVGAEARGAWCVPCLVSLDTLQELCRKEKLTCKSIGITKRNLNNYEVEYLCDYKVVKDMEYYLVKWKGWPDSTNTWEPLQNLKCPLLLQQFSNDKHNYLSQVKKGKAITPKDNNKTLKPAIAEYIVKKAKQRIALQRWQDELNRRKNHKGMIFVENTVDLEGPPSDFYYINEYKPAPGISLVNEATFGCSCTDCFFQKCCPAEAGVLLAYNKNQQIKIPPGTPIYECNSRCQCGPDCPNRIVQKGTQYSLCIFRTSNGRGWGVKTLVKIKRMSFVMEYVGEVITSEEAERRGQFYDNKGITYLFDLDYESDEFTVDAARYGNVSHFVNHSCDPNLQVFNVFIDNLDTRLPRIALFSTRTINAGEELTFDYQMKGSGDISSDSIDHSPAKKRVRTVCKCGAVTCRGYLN
Sequence of Histone-lysine N-methyltransferase SMYD3 (Homo sapiens) (Q9H7B4 whole entry): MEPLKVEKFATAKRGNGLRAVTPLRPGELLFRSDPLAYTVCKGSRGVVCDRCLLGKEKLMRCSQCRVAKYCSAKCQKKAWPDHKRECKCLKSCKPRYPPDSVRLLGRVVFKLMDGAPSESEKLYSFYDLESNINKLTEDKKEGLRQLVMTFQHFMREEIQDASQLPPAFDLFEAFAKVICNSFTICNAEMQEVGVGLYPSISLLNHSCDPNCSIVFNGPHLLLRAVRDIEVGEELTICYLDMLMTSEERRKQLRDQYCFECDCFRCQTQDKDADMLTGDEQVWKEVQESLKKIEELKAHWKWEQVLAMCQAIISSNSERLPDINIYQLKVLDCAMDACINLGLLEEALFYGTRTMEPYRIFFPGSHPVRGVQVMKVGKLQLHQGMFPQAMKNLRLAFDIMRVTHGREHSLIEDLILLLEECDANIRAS
Sequence of Histone-lysine N-methyltransferase NSD2 (Homo sapiens) (O96028 whole entry): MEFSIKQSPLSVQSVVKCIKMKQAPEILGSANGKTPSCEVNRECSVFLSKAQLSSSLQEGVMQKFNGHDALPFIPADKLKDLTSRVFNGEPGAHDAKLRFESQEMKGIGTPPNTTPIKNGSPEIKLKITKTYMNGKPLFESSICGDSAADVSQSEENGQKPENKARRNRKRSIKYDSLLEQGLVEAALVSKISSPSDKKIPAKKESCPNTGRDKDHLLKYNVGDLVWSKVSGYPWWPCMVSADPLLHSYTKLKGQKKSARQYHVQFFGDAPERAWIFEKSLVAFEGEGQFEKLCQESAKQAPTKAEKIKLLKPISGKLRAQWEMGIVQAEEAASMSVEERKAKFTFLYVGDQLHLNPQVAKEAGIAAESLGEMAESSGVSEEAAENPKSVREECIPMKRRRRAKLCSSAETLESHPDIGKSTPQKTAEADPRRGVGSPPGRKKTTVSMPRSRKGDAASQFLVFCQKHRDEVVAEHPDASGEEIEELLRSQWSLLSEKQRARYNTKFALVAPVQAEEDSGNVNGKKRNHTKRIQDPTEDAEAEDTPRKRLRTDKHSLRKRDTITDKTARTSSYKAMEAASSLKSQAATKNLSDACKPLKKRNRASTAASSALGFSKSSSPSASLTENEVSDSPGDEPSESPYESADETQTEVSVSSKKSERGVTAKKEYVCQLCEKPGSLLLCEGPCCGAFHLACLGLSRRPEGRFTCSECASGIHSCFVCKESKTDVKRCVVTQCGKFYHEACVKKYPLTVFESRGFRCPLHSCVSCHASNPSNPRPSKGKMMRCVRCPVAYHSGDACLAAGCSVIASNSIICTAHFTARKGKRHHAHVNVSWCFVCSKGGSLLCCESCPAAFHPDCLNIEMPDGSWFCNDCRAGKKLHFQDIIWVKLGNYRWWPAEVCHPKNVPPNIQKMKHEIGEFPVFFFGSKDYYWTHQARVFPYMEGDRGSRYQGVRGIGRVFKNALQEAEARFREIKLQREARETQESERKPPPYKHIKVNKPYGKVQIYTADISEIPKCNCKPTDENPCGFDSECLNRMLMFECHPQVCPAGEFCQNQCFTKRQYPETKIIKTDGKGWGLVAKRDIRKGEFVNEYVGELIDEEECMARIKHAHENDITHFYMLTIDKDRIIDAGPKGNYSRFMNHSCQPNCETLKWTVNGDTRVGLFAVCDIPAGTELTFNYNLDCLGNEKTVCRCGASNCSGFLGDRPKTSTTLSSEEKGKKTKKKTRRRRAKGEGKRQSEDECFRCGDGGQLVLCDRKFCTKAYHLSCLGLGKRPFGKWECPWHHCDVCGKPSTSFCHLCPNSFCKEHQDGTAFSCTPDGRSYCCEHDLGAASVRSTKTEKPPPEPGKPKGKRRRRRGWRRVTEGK
Sequence of Protein N-lysine methyltransferase METTL21D (Homo sapiens) (Q9H867 whole entry): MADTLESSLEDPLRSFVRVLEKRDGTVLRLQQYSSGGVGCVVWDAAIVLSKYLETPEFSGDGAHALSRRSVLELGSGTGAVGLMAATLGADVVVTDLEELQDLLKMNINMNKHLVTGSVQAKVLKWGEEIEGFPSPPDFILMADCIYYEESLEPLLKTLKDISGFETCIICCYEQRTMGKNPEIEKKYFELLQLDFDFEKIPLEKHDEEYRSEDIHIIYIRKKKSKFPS
Sequence of Protein arginine N-methyltransferase 6 (Homo sapiens) (Q96LA8 whole entry, looked up): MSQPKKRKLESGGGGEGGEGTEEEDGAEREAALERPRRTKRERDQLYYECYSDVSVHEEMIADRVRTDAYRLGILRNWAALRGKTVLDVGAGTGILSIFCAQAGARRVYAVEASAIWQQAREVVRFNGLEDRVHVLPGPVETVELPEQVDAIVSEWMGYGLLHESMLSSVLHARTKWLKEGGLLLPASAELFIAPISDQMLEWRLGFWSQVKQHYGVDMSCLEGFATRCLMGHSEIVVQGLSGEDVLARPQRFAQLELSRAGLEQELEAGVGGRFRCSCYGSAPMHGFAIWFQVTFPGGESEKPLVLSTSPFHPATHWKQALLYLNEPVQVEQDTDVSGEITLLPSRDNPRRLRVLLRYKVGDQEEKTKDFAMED
Sequence of Protein arginine N-methyltransferase 8 (Homo sapiens) (Q9NR22 2-394 limits assumed): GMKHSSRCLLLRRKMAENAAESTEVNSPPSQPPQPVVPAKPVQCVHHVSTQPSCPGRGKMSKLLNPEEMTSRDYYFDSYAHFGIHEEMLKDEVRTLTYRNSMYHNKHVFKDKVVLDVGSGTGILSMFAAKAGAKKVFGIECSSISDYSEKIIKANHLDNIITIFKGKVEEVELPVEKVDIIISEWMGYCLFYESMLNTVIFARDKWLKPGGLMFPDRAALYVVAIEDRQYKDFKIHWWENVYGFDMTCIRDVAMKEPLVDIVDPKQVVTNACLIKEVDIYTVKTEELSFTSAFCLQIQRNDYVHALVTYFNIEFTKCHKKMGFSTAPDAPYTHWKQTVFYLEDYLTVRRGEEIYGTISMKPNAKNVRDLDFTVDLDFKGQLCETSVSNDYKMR

Compound: O=C1COc2c(CCNCCN(C(=O)CCNCCc3ccccc3)C3CCC3)ccc(O)c2N1
IC50 [1]: 26000 nM

Compound: O=C1COc2c(CCNCCN(C(=O)CCNCCc3ccccc3)C3CCCC3)ccc(O)c2N1
IC50 [1]: 2200 nM

Compound: O=C(CCNCCc1ccc(Cl)c(Cl)c1)N(CCNCCCN1CCCC1)C1CCCCC1
IC50 [1]: 1400 nM

Compound: O=C1COc2c(CCNCCN(C(=O)CCNCc3ccc(Cl)c(Cl)c3)C3CCCCC3)ccc(O)c2N1
IC50 [1]: 3100 nM

Compound: O=C1COc2c(CCNCCN(C(=O)CCNCCc3ccccc3)C3CCCCC3)ccc(O)c2N1
IC50 [1]: 440 nM

Compound: O=C(CCNCCc1ccc(Cl)c(Cl)c1)N(CCNCCCN1CCCCC1)C1CCCCC1
IC50 [1]: 2400 nM

Compound: O=C(CCNCCc1ccc(Cl)c(Cl)c1)N(CCNCCN1CCCC1)C1CCCCC1
IC50 [1]: 5000 nM

These reach a lower IC50 [1]. Values come first.

IC50 [1]: 230 nM
Compound: O=C1COc2c(CCNCCN(C(=O)CCNCCc3ccc(Cl)c(Cl)c3)C3CCCCC3)ccc(O)c2N1
fold change (FC) (A549 [38]): >3

IC50 [1]: 5.6 nM
Compound: O=C1COc2c(cccc2[C@H](O)CNCCN(C(=O)CCNCCc2ccc(Cl)c(Cl)c2)C2CCCCC2)N1

inhibition [2]: inactive | inhibition [3]: inactive | inhibition [4]: inactive | inhibition [5]: inactive | inhibition [6]: inactive | inhibition [7]: inactive | inhibition [8]: inactive | inhibition [9]: 65% | inhibition [11]: inactive | inhibition [12]: inactive | inhibition [13]: inactive | inhibition [14]: 65% | inhibition [15]: inactive | inhibition [16]: inactive | inhibition [17]: inactive | inhibition [18]: inactive | inhibition [19]: inactive | inhibition [20]: inactive | IC50 [1]: 2.8 nM | inhibition [21]: inactive | inhibition [22]: inactive | inhibition [23]: inactive | inhibition [24]: inactive | inhibition [25]: inactive | inhibition [26]: inactive | inhibition [27]: inactive | inhibition [28]: 65% | inhibition [29]: inactive | inhibition [30]: inactive | inhibition [31]: inactive | inhibition [32]: inactive | inhibition [33]: inactive | inhibition [34]: inactive | inhibition [35]: inactive | inhibition [36]: 65% | inhibition [37]: inactive
Compound: O=C1COc2c(cccc2[C@@H](O)CNCCN(C(=O)CCNCCc2ccc(Cl)c(Cl)c2)C2CCCCC2)N1
Activity (A549 [10]): inactive
